Source: US20110143948A1, “MOLECULAR SIGNATURES AND BIOMARKERS ASSOCIATED WITH MELANOMA AND METHODS OF USE THEREOF” (priority 2008, published 2011)

Test system: ncRNAs (SEQ ID NO 28-89)
Experiment: ncRNA arrays of melanocytes, keratinocytes, normal skin, melanoma cell lines and patient samples
Design: species or system human
Details: for ncRNA array expression, patient 2: melanoma patient 2 sample compared to normal skin; for ncRNA array expression, patient 3: melanoma patient 3 sample compared to normal skin; for ncRNA array expression, patient 4: melanoma patient 4 sample compared to normal skin; for ncRNA array expression, patient 5: melanoma patient 5 sample compared to normal skin; for ncRNA array expression, patient 6: melanoma patient 6 sample compared to normal skin; for ncRNA array expression, patient 7: melanoma patient 7 sample compared to normal skin; for ncRNA array expression, patient 8: melanoma patient 8 sample compared to normal skin; for ncRNA array expression, patient 9: melanoma patient 9 sample compared to normal skin; for ncRNA array expression, patient 10: melanoma patient 10 sample compared to normal skin; for ncRNA array expression, patient 19: melanoma patient 19 sample compared to normal skin; for ncRNA array expression, patient 20: melanoma patient 20 sample compared to normal skin; for ncRNA array expression, patient 21: melanoma patient 21 sample compared to normal skin; for ncRNA array expression, patient 22: melanoma patient 22 sample compared to normal skin; for ncRNA array expression, patient 23: melanoma patient 23 sample compared to normal skin; for ncRNA array expression, patient 24: melanoma patient 24 sample compared to normal skin; for ncRNA array expression, patient 25: melanoma patient 25 sample compared to normal skin; for ncRNA array expression, patient 26: melanoma patient 26 sample compared to normal skin; for ncRNA array expression, patient 27: melanoma patient 27 sample compared to normal skin; for ncRNA array expression, patient 28: melanoma patient 28 sample compared to normal skin; for ncRNA array expression, patient 29: melanoma patient 29 sample compared to normal skin; for ncRNA array expression, patient 30: melanoma patient 30 sample compared to normal skin
How it was run: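 Differential ncRNA expression was defined against melanocytes or normal skin after subtracting keratinocyte-specific signals, with confirmation by qRT-PCR and Northern blot. Samples were melanoma cell lines, patient tumours, melanocytes, keratinocytes and normal skin, hybridised to a >10,000-probe (>200 nt) ncRNA array that also carries RefSeq mRNA probes.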

Row | Substance | ncRNA array expression, patient 2 | ncRNA array expression, patient 3 | ncRNA array expression, patient 4 | ncRNA array expression, patient 5 | ncRNA array expression, patient 6 | ncRNA array expression, patient 7 | ncRNA array expression, patient 8 | ncRNA array expression, patient 9 | ncRNA array expression, patient 10 | ncRNA array expression, patient 19 | ncRNA array expression, patient 20 | ncRNA array expression, patient 21 | ncRNA array expression, patient 22 | ncRNA array expression, patient 23 | ncRNA array expression, patient 24 | ncRNA array expression, patient 25 | ncRNA array expression, patient 26 | ncRNA array expression, patient 27 | ncRNA array expression, patient 28 | ncRNA array expression, patient 29 | other results
1 | SEQ ID NO 66 (TCCTTTTTATCTTGCACTCAGATGGTATTTTTAGAGATGTTTCTTCAATCAAAACAAGAT; listed as DNA, chemistry not given here; listed as Homo sapiens) | 2.553 | 2.044 | 2.799 | 1.983 | 2.127 | 2.319 | 2.869 | 1.498 | 1.587 | 0.7228 | 2.462 | 2.263 | 1.15 | 1.37 | 1.434 | 2.534 | 2.984 | 2.334 | 2.749 | 3.271 | ncRNA array expression, patient 30: −2.558
2 | SEQ ID NO 67 (TTCCCTATTCCATCCTTTGATGGGTGGCCTGTTACACGTTTGGAAATAAAAACAAGTGGG; listed as DNA, chemistry not given here; listed as Homo sapiens) | 2.053 | 1.721 | 0.6532 | 4.146 | 1.481 | 2.486 | 1.375 | 1.111 | 3.887 | 0.7069 | 1.071 | 3.856 | 1.186 | 2.369 | 1.045 | 0.3622 | 0.8179 | 1.392 | 6.659 | 2.096 | ncRNA array expression, patient 30: −1.191
3 | SEQ ID NO 68 (CAAAAAGAAATCTTGTTTACTTGTAAAAATATAGACTACCTCCTACTTGCCACCGTTAAG; listed as DNA, chemistry not given here; listed as Homo sapiens) | −1.029 | −0.899 | −1.233 | −1.828 | −0.6441 | −2.078 | −0.8097 | −1.121 | −1.445 | −0.5985 | −1.379 | −1.385 | −0.8953 | −0.7105 | −1.38 | −1.607 | −1.329 | −1.5151 | −1.556 | −1.309 | ncRNA array expression, patient 30: −0.1058
4 | SEQ ID NO 69 (AGAGTTCGCACTGGGAAGAGTTAAAAAATAAACATTTACAAGGACGAGGAAAGCGGCCCC; listed as DNA, chemistry not given here; listed as Homo sapiens) | −1.697 | −1.8068 | −1.369 | −1.797 | −0.5526 | −1.8141 | −1.777 | −1.618 | −1.696 | −0.9749 | −1.422 | −1.5966 | −0.8782 | −0.2153 | −1.796 | −1.178 | −1.015 | −0.7594 | −1.693 | −1.645 | ncRNA array expression, patient 30: 0.8457
5 | SEQ ID NO 70 (AGTTATAGAGGAGGCTCAGGAGGATCTGGGGAAACGGGACCAGAGGGTAAGATGGGTTAT; listed as DNA, chemistry not given here; listed as Homo sapiens) | −1.553 | −1.673 | −1.217 | −1.521 | −1.483 | −1.751 | −2.182 | −1.366 | −0.6931 | −1.792 | −1.615 | −1.1 | −1.351 | −0.7876 | −1.593 | −1.473 | −1.495 | −1.848 | −1.549 | −1.625 | ncRNA array expression, patient 30: −0.6666
6 | SEQ ID NO 71 (AAAATTCCAAGAGGGCCTTTTCGAATAGACGCATGAACGGTGTTTGTGTCTGGATCGTCC; listed as DNA, chemistry not given here; listed as Homo sapiens) | 0.7413 | 0.6126 | 1.336 | 2.628 | 1.002 | 1.936 | 0.7221 | 0.1592 | 1.787 | 3.439 | 1.577 | 1.245 | 1.105 | 0.258 | 2.527 | 2.034 | 1.058 | 1.849 | 0.926 | 2.387 | ncRNA array expression, patient 30: −2.464
7 | SEQ ID NO 72 (AATTACATATATTTAGCAGGATTTTTATTTGCCGTGATATATAGGATAATTTAGTCTTTG; listed as DNA, chemistry not given here; listed as Homo sapiens) | 2.217 | 2.382 | 2.566 | 1.096 | 2.336 | 2.665 | 3.323 | −0.6629 | 2.245 | 0.2985 | 1.011 | 0.6264 | 0.5499 | 0.09129 | 2.832 | 3.664 | 3.29 | 2.308 | 1.044 | 2.583 | ncRNA array expression, patient 30: −1.3285
8 | SEQ ID NO 73 (AAAGTTTCCCCATAATGCTCTTGCAAGTGAATATGAGCTGTGGTTTTTGCAGTGGAGTTA; listed as DNA, chemistry not given here; listed as Homo sapiens) | −0.1172 | 1.314 | 2.477 | −0.06181 | 1.506 | −0.179 | 1.518 | 1.007 | 1.767 | 3.505 | 0.6301 | 2.332 | 0.9622 | 0.07892 | 0.3377 | 1.57 | 1.308 | 0.1447 | 2.166 | 0.9153 | ncRNA array expression, patient 30: −0.2612
